This is an account of results in patent publication US12459972B2, “Protease-activated contrast agents for in vivo imaging” (THE BOARD OF TRUSTEES OF THE LELAND STANFORD JUNIOR …, priority 2015, dated 2025).

One assay deals with recombinant cathepsin V (Homo sapiens, UniProt O60911). Kind of assay: Enzyme kinetics / turnover of quenched substrates with recombinant cathepsin V. Type of assay: biochemical. The note with it: for Km / kcat: recombinant cathepsin V, 5 nM enzyme; for Km: 50 mM citrate buffer pH 5.5, 37° C., average of three replicates ± standard error; for kcat: citrate buffer pH 5.5, 37° C.; for increase in efficiency, spacer n=6 relative to n=2 analog: Cat V, nCQ and nQC series respectively. Here is the method: (§1) The activity and selectivity of all 6 substrates were determined by monitoring the turnover curves of each internally quenched probe in the presence of various recombinant cysteine proteases, specifically cathepsins L, S, K, B, and V. Equal concentration (5 nM) of each enzyme was incubated with the different probes in 50 mM citrate buffer (pH=5.5, 5 mM DTT, 0.1% triton X, 0.5% CHAPS) at 37° C. The exact concentration of the various cathepsins used were confirmed by active site titration (Boucher et al. (2014) Methods Mol. Biol. 1133:3-39) using the covalent cysteine protease inhibitor ZFK-PMK and the commercial substrates Z-VVR-AMC for cathepsins S, L, B, and V, or Z-KR-AMC for cathepsin K. The rate of increase in Cy5 fluorescence (which is indicative of probe cleavage by cathepsins) was measured for each of the probes.
Sequence of recombinant cathepsin V (O60911 114-334): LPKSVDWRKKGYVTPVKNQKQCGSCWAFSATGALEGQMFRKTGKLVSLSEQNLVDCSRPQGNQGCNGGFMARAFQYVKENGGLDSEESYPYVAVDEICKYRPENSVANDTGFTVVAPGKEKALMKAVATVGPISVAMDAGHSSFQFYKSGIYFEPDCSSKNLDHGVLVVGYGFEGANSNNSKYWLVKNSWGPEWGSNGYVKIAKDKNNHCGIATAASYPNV

Another assay deals with recombinant cathepsin L (Homo sapiens, UniProt P07711). Briefly: Enzyme kinetics / turnover of quenched substrates with recombinant cathepsin L. In kind it is biochemical. As to conditions: for Km / kcat: recombinant cathepsin L, 5 nM enzyme; for Km: 50 mM citrate buffer pH 5.5, 37° C., average of three replicates ± standard error; for kcat: citrate buffer pH 5.5, 37° C.; for increase in catalytic efficiency, spacer n=6 relative to n=2 analog: Cat L, 6CQ vs 2CQ, 6QC vs 2QC. Here is the method: as §1
Sequence of recombinant cathepsin L (P07711 114-333, species assumed): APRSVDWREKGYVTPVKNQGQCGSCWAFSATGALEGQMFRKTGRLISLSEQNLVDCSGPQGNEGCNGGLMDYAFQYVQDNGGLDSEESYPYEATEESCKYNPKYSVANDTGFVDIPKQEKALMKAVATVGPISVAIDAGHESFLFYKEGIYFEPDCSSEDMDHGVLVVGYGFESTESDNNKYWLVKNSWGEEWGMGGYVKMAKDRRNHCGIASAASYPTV

The subject of assay [1] is 4T1 tumors (tumor associated cysteine cathepsins). Briefly: Non-invasive optical imaging with Cy5 substrates, syngeneic orthotopic 4T1 mouse model of breast cancer. Type of assay: in vivo. The note with it: for Cy5 fluorescence in frozen tumor sections: 24-hour endpoint, histology; for overall absolute fluorescence intensity in the tumors compared to non-lysosomotropic substrates 2CQ and 6CQ: intravenous, non-invasive imaging. As for the experimental part: In this model 4T1 cells are inoculated into the left number 1 and 10 mammary fat pad of mice to generate tumors. In order to determine the impact of the LLE, imaging signals of lysosomotropic probes 2QC (compound 5) and 6QC (compound 7) were directly compared to those of the non-lysosomotropic analogues 2CQ (compound 2) and 6CQ (compound 4). Substrates were administered to tumor-bearing mice intravenously, and mice were imaged at various time points following the administration. […] The intensity of the fluorescent signal reached a maximum at 4 hour after administration, followed by a decrease in the signal intensity (FIG. 4B). […] Furthermore, the intensity of the signal remained constant over a period of 24 hours in the tumors of mice administered with the LLE substrates, whereas the signals from the non-LLE substrates were almost completely cleared after 24 hours (FIGS. 4A and 4B). A similar trend was observed by ex vivo imaging of tumors excised from mice that had been euthanized after 4 hours and after 24 hours (FIG. 4C).
In order to determine which populations of cells are responsible for activating the quenched substrate probes in vivo, immunofluorescence staining on frozen sliced sections of tumors isolated from mice injected with each substrate was performed using a macrophage-selective marker CD68. The Cy5 signal of the substrate co-localized to only CD68-positive cells (macrophages), with no signals observed in the 4T1 tumor cell (FIG. 5A). Moreover, Cy5 fluorescence was only observed in tissues from mice that received nQC substrates and not in tissues from mice treated with nCQ substrates (FIG. 5B).

Assay [2] shares this test system. Briefly: Non-invasive imaging with NIR probes in 4T1 breast cancer model, IVIS-spectrum. Type of assay: in vivo, mouse. As to conditions: 24 hour time course. The text has this: The optimized substrate probes described above have therefore been tested in a clinically relevant model systems of FGS. […] In these compounds, the Cy5 chromophore was strategically substituted with a similar molecular weight near infrared (NIR) DyLight 780-B1 fluorophore. The compound with a linker having n=6 was chosen based on the optimal turnover numbers by cathepsins in vitro. The QSY21-sulfo quencher was also substituted with IRDye QC-1, which is a dark NIR quencher (FIG. 6A). In addition to being detectable on the camera system of the da Vinci robot, the emission wavelength of the NIR dye (absorption/emission maxima of 783/799 nm) falls within a window with low overall background and will therefore enhance tissue penetration and improve signal to background ratio during imaging. Richards-Kortum and Sevick-Muraca (1996) Annu. Rev. Phys. Chem. 47:555-606. The NIR probes were first analyzed as contrast agents in the 4T1 breast cancer model described above, using the IVIS-spectrum imaging system. Following systemic administration of the contrast agents, mice were imaged non-invasively every hour for 4 hours, and then at 6, 8, 12 and 24 hours post injection of the substrate. […] The intensity of the fluorescence signal in the tumors increased rapidly in mice injected with both types of probes, and it eventually peaked between 4 to 6 hours. […]

As usually defined, the Km is the substrate concentration at which the rate is half of its maximum. As a reminder, the kcat is the maximal rate divided by the concentration of active sites.

Structures are written as SMILES.

Turning to `CC[N+]1=C(C=CC=CC=C2N(CCCCCC(=O)NCCCC[C@H](NC(=O)[C@H](Cc3ccccc3)NC(=O)OCc3ccccc3)C(=O)NCCNC(=O)C3CCN(S(=O)(=O)c4ccccc4-c4c5ccc(=[N+]6CCc7cc(S(=O)(=O)O)ccc76)cc-5oc5cc(N6CCc7cc(S(=O)(=O)O)ccc76)ccc45)CC3)c3ccc(S(=O)(=O)O)cc3C2(C)C)C(C)(C)c2cc(S(=O)(=O)O)ccc21` [2CQ], the Km was determined as 5 ± 0.4 µM on recombinant cathepsin V and 6.4 ± 0.8 µM at recombinant cathepsin L. For the same molecule, the results for the catalytic constant (kcat) at recombinant cathepsin V and on recombinant cathepsin L were 0.014 s⁻¹ and 0.141 s⁻¹, respectively.

`CC[N+]1=C(C=CC=CC=C2N(CCCCCC(=O)NCCNC(=O)[C@H](CCCCNC(=O)C3CCN(S(=O)(=O)c4ccccc4-c4c5ccc(=[N+]6CCc7cc(S(=O)(=O)O)ccc76)cc-5oc5cc(N6CCc7cc(S(=O)(=O)O)ccc76)ccc45)CC3)NC(=O)[C@H](Cc3ccccc3)NC(=O)OCc3ccccc3)c3ccc(S(=O)(=O)O)cc3C2(C)C)C(C)(C)c2cc(S(=O)(=O)O)ccc21` [2QC]: on recombinant cathepsin V, the Km was 0.9 ± 0.1 µM and the turnover number (kcat) came to 0.008 s⁻¹. For the same molecule, at recombinant cathepsin L, the Michaelis-Menten constant (Km) stood at 6.5 ± 1.5 µM and the catalytic constant (kcat) is 0.095 s⁻¹. In addition, in assay [1], the “Cy5 fluorescence in frozen tumor sections” value was “observed”; the “overall absolute fluorescence intensity in the tumors compared to non-lysosomotropic substrates 2CQ and 6CQ” value is “higher and brighter”.

As to `CC[N+]1=C(C=CC=CC=C2N(CCCCCC(=O)NCCCC[C@H](NC(=O)[C@H](Cc3ccccc3)NC(=O)OCc3ccccc3)C(=O)NCCCCNC(=O)C3CCN(S(=O)(=O)c4ccccc4-c4c5ccc(=[N+]6CCc7cc(S(=O)(=O)O)ccc76)cc-5oc5cc(N6CCc7cc(S(=O)(=O)O)ccc76)ccc45)CC3)c3ccc(S(=O)(=O)O)cc3C2(C)C)C(C)(C)c2cc(S(=O)(=O)O)ccc21` [4CQ], on recombinant cathepsin V, the Km came to 3.4 ± 0.3 µM and the kcat came out at 0.073 s⁻¹. Further, at recombinant cathepsin L, the Michaelis constant (Km) was 4.6 ± 0.7 µM and the kcat amounted to 0.283 s⁻¹.

Regarding `CC[N+]1=C(C=CC=CC=C2N(CCCCCC(=O)NCCCCNC(=O)[C@H](CCCCNC(=O)C3CCN(S(=O)(=O)c4ccccc4-c4c5ccc(=[N+]6CCc7cc(S(=O)(=O)O)ccc76)cc-5oc5cc(N6CCc7cc(S(=O)(=O)O)ccc76)ccc45)CC3)NC(=O)[C@H](Cc3ccccc3)NC(=O)OCc3ccccc3)c3ccc(S(=O)(=O)O)cc3C2(C)C)C(C)(C)c2cc(S(=O)(=O)O)ccc21` [4QC], on recombinant cathepsin V, the Michaelis constant (Km) came to 4.8 ± 0.2 µM and the turnover number (kcat) came out at 0.188 s⁻¹. Also, on recombinant cathepsin L, the Michaelis constant (Km) stood at 8.6 ± 1.3 µM and the kcat was found to be 0.396 s⁻¹.

With `CC[N+]1=C(C=CC=CC=C2N(CCCCCC(=O)NCCCC[C@H](NC(=O)[C@H](Cc3ccccc3)NC(=O)OCc3ccccc3)C(=O)NCCCCCCNC(=O)C3CCN(S(=O)(=O)c4ccccc4-c4c5ccc(=[N+]6CCc7cc(S(=O)(=O)O)ccc76)cc-5oc5cc(N6CCc7cc(S(=O)(=O)O)ccc76)ccc45)CC3)c3ccc(S(=O)(=O)O)cc3C2(C)C)C(C)(C)c2cc(S(=O)(=O)O)ccc21` [6CQ], on recombinant cathepsin V, the “increase in efficiency, spacer n=6 relative to n=2 analog” value is reported as 8 fold; the Km was 6.8 ± 0.4 µM; the kcat amounted to 0.164 s⁻¹. In addition, on recombinant cathepsin L, the “increase in catalytic efficiency, spacer n=6 relative to n=2 analog” value was determined as 4 fold; the Km was determined as 5.4 ± 0.5 µM; the kcat is 0.487 s⁻¹.

For `CCN(CC)c1ccc2c(C(C)(C)C)cc(C=CC=CC=C3N(CCCCCC(=O)NCCCCCCNC(=O)[C@H](CCCCNC(=O)CCCCCN4C(=CC=C5CCCC(C=CC6=[N+](CCCS(=O)(=O)O)c7ccc(N(CCCS(=O)(=O)O)CCCS(=O)(=O)O)cc7C6(C)C)=C5Cl)C(C)(C)c5c4ccc4cc(S(=O)(=O)O)ccc54)NC(=O)[C@H](Cc4ccccc4)NC(=O)OCc4ccccc4)c4ccc(S(=O)(=O)O)cc4C3(C)C)[o+]c2c1` [6QCNIR], in assay [2], the “clearance rate and signal in tumors relative to the non-LLE substrate” value is “slower clearance rate and brighter signal”.

As for `CC[N+]1=C(C=CC=CC=C2N(CCCCCC(=O)NCCCCCCNC(=O)[C@H](CCCCNC(=O)C3CCN(S(=O)(=O)c4ccccc4-c4c5ccc(=[N+]6CCc7cc(S(=O)(=O)O)ccc76)cc-5oc5cc(N6CCc7cc(S(=O)(=O)O)ccc76)ccc45)CC3)NC(=O)[C@H](Cc3ccccc3)NC(=O)OCc3ccccc3)c3ccc(S(=O)(=O)O)cc3C2(C)C)C(C)(C)c2cc(S(=O)(=O)O)ccc21` [6QC], on recombinant cathepsin V, the “increase in efficiency, spacer n=6 relative to n=2 analog” value was 4 fold; the Michaelis-Menten constant (Km) is 4.4 ± 0.2 µM; the kcat stood at 0.150 s⁻¹. Also, at recombinant cathepsin L, the “increase in catalytic efficiency, spacer n=6 relative to n=2 analog” value stood at 6 fold; the Michaelis-Menten constant (Km) came to 5.3 ± 0.8 µM; the turnover number (kcat) was 0.458 s⁻¹. For the same molecule, in assay [1], the “Cy5 fluorescence in frozen tumor sections” value is given as “observed”; the “overall absolute fluorescence intensity in the tumors compared to non-lysosomotropic substrates 2CQ and 6CQ” value is “higher and brighter”.
